According to patent US20160038459A1, “COMPOSITIONS AND METHODS FOR THE TREATMENT OF NATAL AND PRE-NATAL CONDITIONS WITH ALPHA-TOCOPHEROL” (Northwestern University, priority 2014, published 2016):

Tests used:
[1] = tested on: fetal liver dendritic cell subsets; test: Flow cytometry analysis of gestational day 18 fetal liver dendritic cells; type: in vivo, C57BL/6 mice
Protocol: Following BAL of pups, lungs were removed for analysis of dendritic cell types by flow cytometry. In the fetus, hematopoiesis occurs in the fetal livers. Gestational day 18 fetal livers were collected for analysis of fetal liver DCs. Briefly, tissues were minced and suspended in 5 ml of RPMI solution containing 1 mg/ml collagenase D (Roche) and 0.2 mg/ml DNase I (Roche) at 37° C. with agitation. After 1 h, samples were filtered through sterile 70-μm mesh tissue, centrifuged, and resuspended in 5% FBS-RPMI solution. Red blood cells were lysed in 1×BD PharmLyse Lysing Buffer (BD Biosciences), and the cells were washed two times in PBS. All centrifugation steps were carried out at 300 g for 5 min. Three million cells were used per sample for immunolabeling. […]
(§1) The cells were examined with a BD LSRII flow cytometer (BD Biosciences). […] Fluorescence Minus One staining controls were used as negative controls to identify gates for populations of interest. The following subpopulations of DCs were analyzed: 1) resident conventional DCs: CD11b+Ly6C−CD11chighMHCIIhigh; 2) CD11b+ alveolar DCs: CD11b+Ly6C−CD11c+MHCII−; 3) inflammatory DCs: CD11b+Ly6C+CD11c+MHCII+; 4) plasmacytoid DCs (pDCs): CD11b−Ly6C−CD11clowPDCA-1+MHCII−; 5) resident CD103+DCs: CD11b−Ly6C−CD11c+CD103+MHCII−; and 6) CD11b−alveolar DCs: CD11b−Ly6C−CD11c+MHCII+/−. […]

[2] = tested on: pup lung dendritic cell subsets; test: Flow cytometry analysis of pup lung dendritic cell subsets; type: in vivo, C57BL/6 mice
Protocol: Following BAL of pups, lungs were removed for analysis of dendritic cell types by flow cytometry. In the fetus, hematopoiesis occurs in the fetal livers. Gestational day 18 fetal livers were collected for analysis of fetal liver DCs. Briefly, tissues were minced and suspended in 5 ml of RPMI solution containing 1 mg/ml collagenase D (Roche) and 0.2 mg/ml DNase I (Roche) at 37° C. with agitation. After 1 h, samples were filtered through sterile 70-μm mesh tissue, centrifuged, and resuspended in 5% FBS-RPMI solution. Red blood cells were lysed in 1×BD PharmLyse Lysing Buffer (BD Biosciences), and the cells were washed two times in PBS. All centrifugation steps were carried out at 300 g for 5 min. Three million cells were used per sample for immunolabeling.
The cells were stained for live/dead exclusion in 500 μl PBS containing 0.25 μl of Aqua fluorescent reactive dye (Molecular Probes, Invitrogen) for 20 min at room temperature in the dark. Next, FC receptors were blocked by incubating the cells in 50 μl flow cytometry staining buffer (Biolegend) with 0.75 μl purified rat anti-mouse CD16/CD32 Mouse BD FC Block (no. 553142; BD Pharmingen) for 10 min at 4° C.
To prepare the antibodies for immunolabeling, for each sample equivalent, an antibody stock was prepared by adding the following antibodies to 50 μl of flow cytometry buffer: 1) Live/Dead Aqua fluorescent dye (no. L34957; Molecular Probes, Invitrogen), 0.25 μl/sample; 2) CD45, rat anti-mouse FITC-conjugated, 0.5 mg/ml, clone 30-F11 (no. 103107; Biolegend), 0.31 μl/sample; 3) CD11b, rat anti-mouse PE-CF594-conjugated, 0.2 mg/ml, clone M1/70 (no. 562317; BD Biosciences), 0.05 μl/sample; 4) Ly-6C, rat anti-mouse APC/Cy7-conjugated, 0.2 mg/ml, clone HK1.4 (no. 128025; Biolegend), 0.4 μl/sample; 5) CD11c, Armenian hamster anti-mouse PE/Cy7-conjugated, 0.2 mg/ml, clone N418 (no. 117317; Biolegend), 0.2 μl/sample; 6) I-A/I-E (MHCII), rat anti-mouse PerCP/Cy5.5-conjugated, 0.2 mg/ml, clone M5/114.15.2 (no. 107625; Biolegend), 0.1 μl/sample; 7) CD103, Armenian hamster anti-mouse Brilliant Violet 421-conjugated, clone 2E7 (no. 121421; Biolegend), 0.2 μl/sample; 8) CD317 (PDCA-1), rat anti-mouse APC-conjugated, 0.2 mg/ml, clone 927 (no. […]
as §1

[3] = tested on: bone marrow-derived CD11c+CD11b+ DCs; test: Bone marrow-derived dendritic cell culture with GM-CSF in vitro; type: cell-based, mice; conditions: 80 μM vs DMSO
Protocol: For bone marrow-derived postnatal day 10 pup dendritic cell cultures, a single cell suspension of bone marrow from 10-day-old mice was placed in RPMI 1640, glutamine, HEPES, gentamycin sulfate, penicillin/streptomycin, and 10% heat-inactivated FCS. The bone marrow cells were treated with the DMSO solvent control (0.01%) or D-α-tocopherol (80 μM) as we previously described for in vitro treatment with D-α-tocopherol (7). The cells were stimulated with 5 ng granulocyte macrophage colony-stimulating factor (GM-CSF) per milliliter. The culture medium with tocopherol and GM-CSF was replaced on days 2, 4, and 7. […]

[4] = tested on: lung tissue cytokines and eotaxins; test: Pup lung cytokines, chemokines, IDO and MHCII by qPCR; BAL CCL24 by ELISA; type: in vivo, C57BL/6 mice
Protocol: Total RNA was isolated from 50 to 100 mg lung tissue using the QIAGEN RNeasy Fibrous Tissue Mini Kit. cDNA was prepared using a SuperScript II RNase H-Reverse Transcriptase kit (Invitrogen) and analyzed by PCR on an ABI 7300 Thermal Cycler (Applied Biosystems). Taqman probes and Taqman Universal Master Mix were used as directed (Applied Biosystems). CCL24 in the BAL also was examined by ELISA (Raybiotech).

[5] = tested on: OVA-challenged pups from allergic mothers; test: OVA-induced allergic inflammation in pups from allergic mothers given D-α-tocopherol-supplemented diet
Protocol: C57BL/6 female mice were maintained on chow diet. The mice were sensitized by intraperitoneal injection (200 μl) of ovalbumin (OVA) grade V (5 μg)/potassium aluminum sulfate (alum, 1 mg) or saline/alum (1 mg) on days 0 and 7 (26, 28, 46). The mice were exposed to nebulized saline or 3% (wt/vol) OVA in saline for 15 min on three consecutive days at 8, 12, and 16 wk of age. At 18 wk old, the female mice were challenged one time with 3% OVA (26, 28, 46) and then fed basal diet or diet supplemented with D-α-tocopherol (500 mg α-tocopherol/kg diet) (Table 1) (42, 52, 71). […] Ten days after starting the tocopherol-supplemented diet, females were mated with normal males. Three-day-old pups were sub-optimally sensitized by treating with only one 50-μl ip injection (rather than two injections) of 5 μg OVA/1 mg alum (26, 28, 33). At 10, 11, and 12 days old, the pups were challenged for 15 min with 3% OVA (FIG. 1A). At 13 days old, the pups were weighed and killed, and tissues were collected. Serum was collected for analysis of IgE, liver was for tocopherol analysis, lung lavage was for leukocytes and cytokines, and lung tissue was for histology, flow cytometry, and qPCR of mediators of allergic inflammation. Liver was extracted and examined for tocopherols by high-pressure liquid chromatography with electrochemical detection as we previously described (7, 50). Bronchoalveolar lavage (BAL) cells were stained and counted as previously described (3). […] Lung tissue sections were fixed in cold methanol for 15 min, rehydrated for 60 min with PBS, and stained with eosin and methyl green as we previously described (6).
In these studies, allergic responses were induced in 6-wk-old adult female mice by sensitization with OVA/alum at weeks 0 and 1 and challenge with OVA or saline three times a week during weeks 4, 8, 12, and 18 as in the timeline in FIG. 1A. Next, the females were supplemented with D-α-tocopherol at the time of mating (FIG. 1A). The mothers were given a standard basal diet (45 mg D-α-tocopherol/kg diet) or supplemented with 150, 250, or 500 mg D-α-tocopherol/kg diets (Table 1). […] All pups from the mothers were challenged with a suboptimal regimen of OVA as previously described (46); the pups received one, instead of two, sensitizations with OVA-alum and then received three challenges with aerosolized OVA (FIG. 1A).

[6] = Liver tocopherol measurement by HPLC with electrochemical detection; type: in vivo, C57BL/6 mice
Protocol: Diets or livers were weighed and homogenized in absolute ethanol with 5% ascorbic acid on ice. The internal standard tocol is added to each […] to determine recovery. The homogenate or plasma was extracted with an equal volume of hexane with 0.37 wt/100 wt butylated hydroxytoluene to prevent oxidation and increase recovery of tocopherol. The samples were vortexed and then centrifuged for 10 min at 9,000 g at 4° C. The hexane layer was dried under nitrogen and stored at −20° C. The samples were reconstituted in methanol, and then tocopherols were separated using a reverse-phase C18 HPLC column (Hewlett Packard) and HPLC (Waters) with 99% methanol-1% water as a mobile phase with detection with an electrochemical detector (potential 0.7 V) (Waters).

[7] = tested on: bone marrow-derived DCs co-cultured with CD4+ T cells; test: Bone marrow-derived DCs co-cultured 48 hours with purified CD4+ T cells; type: cell-based; conditions: 48 hours co-culture (not shown)
Protocol: FIGS. 17A-C show α-T and γ-T have opposing effects in regulation of DC development and function in vitro. FIGS. 17A and B show results from bone marrow from postnatal day 10 neonate (with basal diet) that was cultured with GM-CSF and with 80 μM αT (FIG. 17B) or 2 μM γT (FIG. 17A) for 8 days and analyzed for DC subsets by immunolabeling/flow cytometry. *, p<0.05 compared to DMSO group. **, p<0.05 compared to indicated group. […] Expression by qPCR. There was no effect on cell viability (not shown). n=3. **, p<0.05 compared to all other groups. *, p<0.05 compared to DMSO group.

[8] = tested on: OVA-challenged pups from allergic mothers; test: Maternal γ-tocopherol supplementation of allergic mothers, suboptimal OVA challenge of pups; type: in vivo, C57BL/6 mice; conditions: for numbers of IRF4+CD11b+CD11c+ dendritic cells in pup lung: OVA-challenged pups from allergic mothers; for inflammatory mediators in OVA-treated pup lungs: protein array and ELISA of minced lung culture supernatants
Protocol: (§2) C57BL/6 female mice were sensitized with OVA/alum and challenged with OVA (150 μg) as in the timeline below. Then, the cages were supplied with basal diet (45 mg γ-tocopherol/kg diet) or γ-tocopherol supplemented diets (250 mg γ-tocopherol/kg diet) and males were introduced for breeding. The pups were administered a suboptimal dose of OVA/alum (i.e., one i.p. with OVA/alum and 3 challenges for 10 min with 3% OVA as previously described (Am J Respir Cell Mol Biol 2011. 44: 285 and Am J PhysiolLung Cell MolPhysiol. 2014, 15; 307:L482-96; both of which are herein incorporated by reference in their entireties).

[9] = Tissue γ-tocopherol after maternal γ-tocopherol-supplemented diet; type: in vivo, C57BL/6 mice
Protocol: as §2

[10] = PND13 OVA-challenged pups, maternal supplementation
[11] = bone marrow from 10-day-old neonates, 8 days
[12] = maternal supplementation during pregnancy/lactation, first litter, PND13, qPCR
[13] = second litter, 500 mg/kg maternal diet, OVA-challenged pups from allergic mothers
[14] = maternal supplementation, discussion statement
[15] = 250 mg γ-tocopherol/kg maternal diet
[16] = 250 mg γ-tocopherol/kg maternal diet, listed as γT
[17] = 250 mg γ-tocopherol/kg maternal diet, allergic mothers

SMILES: Cc1c(C)c2c(c(C)c1O)CC[C@@](C)(CCC[C@H](C)CCC[C@H](C)CCCC(C)C)O2 [D-α-tocopherol, D-α-Tocopherol]
- fetal liver CD11c+CD11b− subsets ([1]; maternal supplementation (data not shown)): not altered
- number of CD11c+CD11b+DCs in fetal livers, including phenotype of mDCs and of resident DCs ([1]; supplementation of allergic mothers): reduced
- lung tissue number of CD11c+CD11b+ subsets of DCs, including resident conventional DCs, mDCs, and CD11b+ alveolar DCs [2, 10]: significantly reduced
- pup lung CD11c+CD11b− subsets of cells, including pDCs, resident CD103+DCs, CD11b− alveolar DCs, and alveolar macrophages [2, 10]: did not alter
- mean fluorescence intensity for MHCII, CD80, and CD86 on CD11c+CD11b+DCs and CD11c+CD11b−DCs ([2]; pup lung, among the groups (data not shown)): not different
- pup lung pDC-to-cDC ratio ([2]; supplementation of allergic mothers, OVA-challenged pups, 0.3 with basal diet): 0.53
- percent of viable cells in the culture ([3]; 8 days (data not shown)): without affecting
- number of CD45+CD11b+CD11+DCs [3, 11]: reduced
- number of cells with resident DC phenotype (CD45+CD11b+CD11c+Ly6c−MHCII−DCs) [3, 11]: reduced
- OVA-induced pup lung mRNA expression of CCL11 [4, 12]: inhibited
- OVA-induced pup lung mRNA expression of CCL24 [4, 12]: inhibited
- OVA-induced pup lung mRNA expression of IL-4 [4, 12]: inhibited
- OVA-induced pup lung mRNA expression of IL-33 [4, 12]: inhibited
- protein expression of CCL24 in BAL supernatant ([4]; maternal supplementation during pregnancy/lactation, PND13, ELISA): inhibited
- whole lung expression of IFNγ [4, 13]: no effect
- whole lung expression of IL-2 [4, 13]: no effect
- whole lung expression of IL-10 [4, 13]: no effect
- whole lung expression of MHCII [4, 13]: no effect
- whole lung expression of TNF-α [4, 13]: no effect
- whole lung mRNA expression of CCL11 [4, 13]: reduced
- whole lung mRNA expression of CCL24 [4, 13]: reduced
- whole lung mRNA expression of IL-4 [4, 13]: reduced
- whole lung mRNA expression of IL-33 [4, 13]: reduced
- whole lung mRNA expression of TSLP [4, 13]: reduced
- lung tissue expression of IDO ([4]; second litter, 500 mg/kg maternal diet, pups from allergic mothers and saline mothers): reduced
- percent eosinophils in the BAL ([5]; 150 mg α-tocopherol/kg maternal diet, pups PND13): partially inhibited
- percent eosinophils in the BAL ([5]; 250 mg α-tocopherol/kg maternal diet, pups PND13): greatest inhibition
- development of the allergic response in cross-fostered neonates ([5]; 250 mg/kg diet during pregnancy only, pups cross-fostered to allergic mothers with basal diet): sufficient to inhibit
- allergic responses in cross-fostered neonates ([5]; 250 mg/kg diet supplementation during lactation only, cross-fostered): reduced
- percent eosinophils in the BAL ([5]; 500 mg α-tocopherol/kg maternal diet, pups PND13): greatest inhibition
- inhibition of BAL eosinophils in the OVA-challenged pups ([5]; 500 mg/kg diet started at second mating, second litter of allergic mothers): > 90%
- OVA-specific serum IgE in pups ([5]; among the D-α-tocopherol treatment groups, ELISA): not different
- allergic inflammation in the OVA-stimulated pups from allergic mothers ([5]; maternal diet 150, 250 or 500 mg/kg diet vs basal 45 mg/kg, pregnancy and lactation, PND13 BAL): dose-dependent inhibition
- eosinophils in the lung tissue of OVA-challenged pups ([5]; maternal supplementation of allergic female mice, eosin/methyl green histology): reduced
- allergic responses in the lung (BAL eosinophils and monocytes) ([5]; maternal supplementation, PND13 pups of the liver tocopherol/DC experiment (FIG. 9D)): blocked
- body weight [5, 14]: did not affect
- lung weight [5, 14]: did not affect
- pup gender distribution ([5]; maternal supplemented diets): no effect
- pup numbers ([5]; maternal supplemented diets): no effect
- pup weight ([5]; maternal supplemented diets, pups PND13): no effect
- increase of pup liver D-α-tocopherol with maternal supplementation ([6]; PND13 pup liver): 2.5 fold
- cell viability ([7]; 80 μM α-T): no effect

SMILES: Cc1c(O)cc2c(c1C)O[C@](C)(CCC[C@H](C)CCC[C@H](C)CCCC(C)C)CC2 [γ-tocopherol]
- number of BAL leukocytes in OVA-challenged pups from allergic mothers [8, 15]: increases
- number of pups from supplemented allergic mothers [8, 15]: fewer pups
- pup responses to allergen challenge ([8]; 250 mg γ-tocopherol/kg maternal diet during pregnancy/lactation, allergic mothers): elevated
- numbers of IRF4+CD11b+CD11c+ dendritic cells in pup lung [8, 15]: increases
- numbers of IRF4+CD11b+CD11c+ dendritic cells in pup lung [8, 16]: elevated numbers
- numbers of CD11b expressing subsets of CD11c dendritic cells in pup lung [8, 17]: increased numbers
- numbers of pup lung eosinophils [8, 17]: increased numbers
- number of allergic mothers with pups ([8]; 250 mg γ-tocopherol/kg maternal diet, percentage of mated females that had pups): reduced
- inflammatory mediators in OVA-treated pup lungs [8, 15]: increases
- inflammatory mediators in OVA-treated pup lungs [8, 16]: increased
- tissue γ-tocopherol in mothers [9]: elevates
- tissue γ-tocopherol in pups [9]: elevates
- liver γ-tocopherol ([6]; all groups of the D-α-tocopherol diet experiment (data not shown)): < 0.003 μg γ-tocopherol/g liver tissue
- cell viability ([7]; 2 μM γ-T): no effect
